How the values were obtained:
[1] = system: CRC039 tumors; experiment: In vivo anti-tumor effect, CRC039 explant tumors; design: species or system NOD/SCID mice; settings: 10, 100 or 200 mg/kg gavage, 6 days per week, 3 weeks
Procedure: (§1) HCT116 colon cancer cells were harvested from flasks with 0.05% Trypsin/EDTA, washed with PBS, and resuspended with Hanks buffered solution at 5×10^6 cells/100 μL concentration. CRC explants (CRC039) cultured in vitro were harvested with the same procedure, and mixed with equal volume of Matrigel to make 1×10^6 cells/100 μL concentration. A hundred μL of cell suspension was inoculated to the flank of NOD/SCID mice 4 days before the start of treatment. […] Tumor size was measured 3 times a week until mice were sacrificed.
(§2) HCT116 colon cancer cells were harvested from flasks with 0.05% Trypsin/EDTA and resuspended with Hanks buffered solution at 5×10^6 cells/100 μL concentration. CRC explants (CRC039) cultured in vitro were harvested with the same procedure and mixed with equal volume of Matrigel to make 1×10^6 cells/100 μL concentration. The cell suspension (100 μL) was inoculated into the flank of NOD/SCID mice 4 days before the start of treatment. […] Initially, 2 weeks of treatment was planned for both HCT116 and CRC039. However, treatment was extended to 3 weeks for CRC039 cells because the […] grew much slower than the HCT116 cell line. Tumor size was measured 3 times a week until mice were euthanized.

[2] = system: HCT116 tumors; experiment: In vivo anti-tumor effect, HCT116 tumors; design: species or system NOD/SCID mice
Procedure: as §1, §2

[3] = in vivo; settings: NOD/SCID, mouse, po, 200 mg/kg
Procedure: Blood samples were obtained from vena cava following euthanasia by ketamin injection at predose and at 0.25, 0.5, 0.75, 1, 1.5, 4, 8, 12, 24 hr after drug administration. Blood samples were put into eppendorf tubes containing 10 μL of heparin (1000 U/mL), centrifuged at 1,200 g for 10 min. Plasma were collected and frozen at −20° C. until HPLC analysis.
The Calibration curve was linear from 0.2 ng/mL (lower limit of quantitation, LLOQ) to 300 ng/mL.
Blood samples were obtained from vena cava at predose and at 0.25, 0.5, 0.75, 1, 1.5, 4, 8, 12, 24 hr after drug administration. Plasma was collected by the centrifugation (1,200 g, 10 min) of blood with heparin (100 U/mL).

[4] = system: HT29 cells; experiment: MTT assay, HT29; type: cell-based
Procedure: (§3) AsPC-1 tumor cells were cultured with T cells at a 1:5 ratio for 7 days in the presence of MEDI-565 or Cont BiTE (100 ng/mL). On day 7, floating cells were discarded and only adherent AsPC-1 cells were harvested with 0.05% trypsin/EDTA and washed with PBS three times. 1×10^4 AsPC-1 tumor cells were added to each well of 96 well flat bottom plates in 200 μL of complete RPMI1640 medium. The cells were allowed to adhere to the plates overnight at 37° C. (day 0) and were further incubated for 1, 2, 4 or 7 days. 20 μL of 10×MTT (3-[4,5-dimethylthiazol-2-yl]-2,5-diphenyl-tetrazolium bromide, 5 mg/mL) solution was added to each well, and incubated at 37° C. for 2 hr. The adherent cells were lysed with 150 μL of dimethyl sulfoxide (DMSO) and the optical density (OD) at 550 nm was measured.
(§4) Colorectal cancer cell lines were incubated in 96-well flat-bottomed plates at 5,000 cells per well in 200 μL of complete RPMI1640 medium. The cells were allowed to adhere to the plates overnight at 37° C. (day 0). […] Then 20 μL of 10×MTT solution was added to each well and incubated at 37° C. for 2 hr. The adherent cells were lysed with 150 μL of DMSO, and then optical density (OD) at 562 nm was measured. DMSO or culture medium was used as a control.
MTT assay was performed at each time point.

[5] = system: Dvl-2; experiment: Western blot of cytosolic Dvl-2 in colorectal cancer cells; type: cell-based
Procedure: CRC explants and colorectal cancer cell lines were cultured in 6-well plates. […] After washing cells with PBS three times, hypotonic lysis buffer consist of 10 mM Tris-HCl, pH7.4 and 0.2 mM MgCl2, supplemented with 1× Halt Protease and Phosphatase Inhibitor Cocktail (Thermo Scientific Pierce Protein Research Products, Rockford, Ill.) were applied to make cell lyates for Western Blot.
After washing cells with PBS, cell lysates were made with hypotonic lysis buffer.

[6] = system: fibroblasts; experiment: Flow-based cytotoxicity assay (annexin V), fibroblasts; type: cell-based; settings: 3 days, 0.2-20 μM
Procedure: (§5) After 3 days incubation, all cells were harvested with 0.05% trypsin/EDTA and spun down by centrifugation. Cells were labeled with biotin-conjugated Annexin V, and then stained with 7-AAD and Streptavidin-APC. Samples were acquired by FACSCalibur machine (BD Bioscience) and analyzed with CellQuest software. Cells were analyzed for expression of Annexin V as a marker of apoptosis.
(§6) Annexin V may be used as a marker for apoptosis and other forms of cell death. […] After 3 days of incubation, all cells were harvested with 0.05% trypsin/EDTA, labeled with biotin-conjugated Annexin V, and then stained with 7-AAD and streptavidin-APC. Samples were acquired by FACSCalibur, and percentages of annexin V-positive cells were analyzed and plotted as shown in FIG. 11. Cells were analyzed for expression of Annexin V as a marker of apoptosis.

[7] = system: HCT116 cells; experiment: Flow-based cytotoxicity assay (annexin V), HCT116; type: cell-based; settings: 3 days, 0.2-20 μM
Procedure: as §5, §6

[8] = system: CRC explants; experiment: MTT assay, CRC explants; type: cell-based; settings: 72 hr
Procedure: as §3
as §4, with “The” for “Colorectal cancer cell lines were incubated in 96-well flat-bottomed plates at 5,000 cells per well in 200 μL of complete RPMI1640 medium. The”
An MTT assay was performed after 72 hr incubation. After cell lysis with DMSO, the optical density (OD) at 562 nm was measured.

[9] = Side effects during in vivo treatment; design: species or system NOD/SCID mice; settings: up to 200 mg/kg gavage, 2-3 weeks
Procedure: as §2

SMILES: O=C(Nc1ccc([N+](=O)[O-])cc1Cl)c1cc(Cl)ccc1O [niclosamide]
- tumor growth [1]: significantly inhibited the growth
- tumor volume vs control ([2]; 200 mg/kg gavage, after two weeks): less than half a volume
- tumor growth ([2]; 10, 100 or 200 mg/kg gavage, 6 days per week, 2 weeks): significantly inhibited the growth
- Cmax [3]: 894 ng/mL
- Elimination rate (z-lambda) [3]: 0.217 h⁻¹
- Tmax [3]: 0.25 h
- concentration at 1.5 hr [3]: 77.6 ng/mL
- half-life [3]: 3.2 h
- concentration showing anti-proliferation effect ([4]; 0.4, 2, 10 μM tested, 72 hr): 10 µM
- % proliferation over time ([4]; 0.4, 2, 10 μM, 24-96 hr): insensitive
- cytosolic Dvl-2 expression ([5]; CRC057 and HCT116, 1, 5, 10 μM, 18 hr): downregulated
- cytosolic Dvl-2 expression ([5]; HT29 cells): milder change
- apoptotic cell death (annexin V) [6]: did not show a significant increase
- concentration with steep increase of annexin V-positive cells [7]: 0.2 µM
- killing of CRC020 explant cells ([8]; 5 μM): killed significantly
- cytotoxicity (MTT, OD 562 nm) in 8 CRC explants ([8]; 0.4, 2, 10 μM): cytotoxic effects
- side effects during treatment [9]: no obvious side effect
